Source: US11964943B2, “3,5-diarylidenyl-n-substituted-piperid-4-one-derived inhibitors of Stat3 pathway activity and uses thereof” (priority 2017, dated 2024)
“And” between values parts separate entries of the source, which are not always exact repeats. Identical values can stand only once. “Also recorded” adds a separate entry of the source.

Columns and labels:
DU145 cells [1] = test: Colony formation assay with paclitaxel; type: cell-based; conditions: 0.4 μM IE-8 + 0.003 μM paclitaxel, 10 days
Protocol: DU145 cells were seeded at 1000 cells/well in 6-well plates and allowed to adhere overnight. Cells were treated after seeding with IE-8, paclitaxel, and a combination thereof, and incubated without any further manipulation for 10 days until the control (untreated) wells had <200 colonies formed. Colonies were fixed with ice-cold 100% Methanol, washed with PBS, stained with crystal violet (0.5% w/v) for 5 minutes and counted using a colony-counting function of the Fusion 15.12 software.

DU145 cells [2] = test: Annexin V/PI apoptosis assay; type: cell-based; conditions: DU145, 24 h, increasing concentrations
Protocol: Cells were seeded in 24-well plates at densities of 10×10^4 cells/well (A2780-cisplatin resistant) and 1.6×10^4 cells/well (DU145) and allowed to grow at 37° C. overnight prior to treatment. […] At the end of the drug incubations, the supernatant along with the trypsinised cells were collected in falcon tubes and spun for 3 min at 300 g. Cell pellets were resuspended in PBS and transferred to fresh Eppendorf tubes. After a final round of centrifugation, cell pellets were gently resuspended in 150 μl of a Annexin V-FITC labelled solution in binding buffer (2 μl per 150 μl buffer; Binding buffer: 10 mM Hepes/NaOH, pH 7.4, 140 mM NaCl and 2.5 mM CaCl2) and incubated in the dark at 37° C. for 15 min. Cells were subsequently stained with 150 μl of a 200 mg/mL PI-solution and samples were immediately processed with the flow cytometer. […] The data were analysed and presented using the FlowJo software.
Annexin V/Propidium iodide Apoptosis/Cell death was assessed by flow cytometry using the FITC-conjugated annexin V protein (Affymetrix, eBioscience) and propidium iodide double staining. […] Cells were subsequently counterstained with the addition of PI (200 μg/ml) and analysed on a Millipore Guava easyCyte™ 8HT flow cytometer using the InCyte software. The derived data were analysed as dot plots and quantified using the FlowJo software (TreeStar).

A549 cells = test: SRB growth inhibition and combination index with cisplatin, A549; type: cell-based, human
Protocol: The affected fractions were calculated from the SRB or MTT assay absorbance values and were registered to derive the respective CI values and isobolograms. A CI value of less than 1 (one) indicates synergy.
The SRB assay was used to assess cell growth inhibition by IE-8 alone and in combination with cisplatin. […] For combination studies drug treatments were sequential with IE-8 applied first followed by cisplatin for 1 h. […] Absorbance was read at 540 nm and results were normalized to untreated controls. For analysis of GC50 values and statistical significance, non-linear regression analysis with a comparison of fits was performed with the GraphPad Prism 6.0 software.
Drug Combination studies. Sulforhodamine B (SRB) Cell Growth Inhibition Assay. The SRB assay was used to assess cell growth inhibition by 8 h alone and in combination with cisplatin. […] For combination studies drug treatments were sequential with 8 h applied first followed by cisplatin for 1 h. […] Absorbance was read at 540 nm and results were normalized to untreated controls. For analysis of GC50 values and statistical significance, non-linear regression analysis with a comparison of fits was performed with the GraphPad Prism 6.0 software.

γ-H2AX = γ-H2AX immunofluorescence staining; type: cell-based; conditions: DU145, 1.2 μM 18 h then 60 μM cisplatin 1 h
Protocol: For Stat3, pStat3 staining, 2.5×10^4 cells/ml were plated on 13-mm glass cover slip (VWR) in 24 well plates, allowed to adhere and processed the next day. Cells were treated with IE-8 for 18 h, and subsequently washed in ice cold PBS and fixed with 2% paraformaldehyde PFA (Alfa Aesar) for 10 min at room temperature, followed by permeabilization with PBS containing 0.5% Triton X-100 for 10 min. Cells were blocked in PBS 5% BSA for 1 h at ambient temperature. Respective proteins were identified by incubation for 4 h with anti-Stat3 and anti-pStat3 rabbit polyclonal antibodies (1:1000, Cell signalling) or anti-phospho-Histone H2A.X mouse monoclonal (1:500; Millipore) diluted in a PBS 1% BSA buffer. Cells were incubated with a secondary fluorescent conjugated antibody Alexa Fluor 488 (1:500; Life Technologies) for 2 h at RT. Nuclei were stained using propidium iodide (2 μg/ml; Sigma-Aldrich) and mounted on glass slides with mounting medium (Dako).
To quantify γ-H2AX foci from images obtained using the protocol above, the program CellProfiler was utilized. Each cell nucleus was identified and the number of foci within computationally counted. The number of foci was taken as an average from the first 30 cells measured with a detection threshold of 0.3.

DU145 cells [3] = test: SRB growth inhibition assay for radiosensitization; type: cell-based; conditions: 18 h pretreatment, then irradiation
Protocol: Stock cultures were trypsinised and 2500 cells were seeded into each well of 96-well, flat-bottomed microtiter plates, in a volume of 200 μl and left to adhere overnight at 37° C. The desired concentrations of IE-8 or curcumin were prepared in culture medium immediately before use. Medium in wells was removed and 200 μl of drug medium mixture was added. Three replicates were used for each drug concentration. One solvent control lane was included in each experiment. Plates were incubated for 18 h at 37° C. At the end of the drug treatment, the media was replaced with 200 μl of fresh media. Subsequently the plates were irradiated at 0, 2, 4 and 6 Gy. The plates were incubated for three days in a humidified incubator at 37° C. with 5% CO2. The media in the wells was removed and 100 μl of ice-cold 10% (wt/vol) trichloroethanoic acid (TCA) was added per well, to fix the cells. […] Plates were left at room temperature for 20 minutes, and the optical density (OD) at 540 nm was determined using a microplate reader (Thermo). Growth inhibition was expressed as the fraction of control A540 (surviving fraction) and calculated from the following equation; fraction of control A540=OD of untreated control at each radiation dose. The mean surviving fraction for each drug concentration for each radiation dose was calculated.

pStat3 = test: Immunohistochemistry of pStat3 in xenograft tissue sections; type: in vivo, mice; conditions: A549, A431, DU145 and HCT116-oxaliplatin resistant xenografts, single dose 30 mg/kg, 24 h
Protocol: Mice were treated as described in the survival experiments but were sacrificed 24 h post administration of the compound or vehicle, intraperitoneally.

[4] = system: A2780-cisplatin resistant spheroids; test: Spheroid diameter measurement; type: cell-based; conditions: for Diameter (μm): 96 h
Protocol: For cell spheroid formation, HCT116-oxaliplatin resistant cells, A2780-cisplatin resistant cells, and HT1080 cells were seeded in Corning® Spheroid opaque-walled 96 well Microplates (ultra-low attachment; Nuclon™ Sphera™, Thermofisher) at densities of 2000 cells/well in 100 μl of cell solution and allowed to grow for 4 days, before any manipulation.
The diameters of spheroid cells were determined using Cell^F Imaging Software. A diameter corresponds to the mean value of one horizontal and one vertical measurement.

[5] = system: HCT116-oxaliplatin resistant and A2780-cisplatin resistant cells; test: 2D monolayer cytotoxicity in platinum-resistant cells; type: cell-based; conditions: compared with HO-3867, atovaquone, curcumin and stattic
Protocol: MIT assay. Individual drug treatments and combinations were carried out as with the SRB assay. The MTT assay was carried out as previously (see Cytotoxicity studies sections) with the difference that it was completed in 96 h.

Molecule	colony formation (DU145 cells [1])	apoptotic cells (Annexin V/PI) (DU145 cells [2])	combination index (CI) with cisplatin (A549 cells; 10 μM IE-8 1 h then cisplatin 1 h)	combination index (CI) with cisplatin (A549 cells; IE-8 18 h then cisplatin 1 h, fixed ratio 1:50)	DNA-damage response to cisplatin (γ-H2Ax induction) (γ-H2AX)	radiosensitization (cell survival, SRB) (DU145 cells [3])	pStat3 levels in xenograft tissue sections (pStat3)	spheroid size ([4]; 10 μM IE-8, 96 hours)	Diameter (μm) ([4]; IE-8 1.0 μM)	Diameter (μm) ([4]; IE-8 2.0 μM)	Diameter (μm) ([4]; IE-8 3.0 μM)	Diameter (μm) ([4]; IE-8 4.0 μM)	Diameter (μm) ([4]; IE-8 5.0 μM)	cytotoxicity relative to other Stat3 inhibitors [5]
COc1cc(/C=C2\CN(c3ccccc3)C/C(=C\c3cc(OC)c(OC)c(OC)c3)C2=O)cc(OC)c1OC [IE-8, 3,5-Di(3,4,5-trimethoxybenzylidene)-1-phenylpiperidin-4-one]	no colonies were formed	dose-dependent increase in apoptotic cells	below 1	below 1	enhanced	more efficient at reducing cell survival	marked and in many instances significant downregulation; also recorded: downregulation of the pStat3 levels in vivo, was achieved	markedly decreases the size of the spheroid	1176.0	1037.0	990.9	820 μm and 819.7 μm	619.8	–
3,5-Di(3,4,5-trimethoxybenzylidene)-1-phenylpiperidin-4-one [IE-8]	–	–	–	–	–	–	–	–	–	–	–	–	–	more cytotoxic than the other tested inhibitors
